Experiments:
Format in all cases: cell-based
D3R [1] = molecular target: T1, D3R (Homo sapiens, UniProt P35462); experiment: BRET-based β-arrestin recruitment assay at D3R (10 min); conditions: D3R; for EC50: read-out: β-arrestin Recruitment pEC50 ± SEM (converted)
T1 construct: expressed in transfected cells; host or cells: HEK293T
Target sequence in this assay (P35462 whole entry): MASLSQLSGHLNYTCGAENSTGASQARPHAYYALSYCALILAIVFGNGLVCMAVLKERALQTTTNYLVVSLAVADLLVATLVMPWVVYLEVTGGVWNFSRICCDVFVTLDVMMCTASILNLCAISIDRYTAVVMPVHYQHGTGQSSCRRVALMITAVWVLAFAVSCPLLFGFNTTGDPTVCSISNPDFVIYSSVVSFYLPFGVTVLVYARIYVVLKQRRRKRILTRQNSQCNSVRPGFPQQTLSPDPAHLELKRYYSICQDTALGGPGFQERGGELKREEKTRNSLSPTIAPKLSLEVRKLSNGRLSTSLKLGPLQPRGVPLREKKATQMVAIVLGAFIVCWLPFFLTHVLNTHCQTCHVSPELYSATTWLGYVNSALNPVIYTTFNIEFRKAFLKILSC
Target sequence in this assay (P32121 whole entry partner): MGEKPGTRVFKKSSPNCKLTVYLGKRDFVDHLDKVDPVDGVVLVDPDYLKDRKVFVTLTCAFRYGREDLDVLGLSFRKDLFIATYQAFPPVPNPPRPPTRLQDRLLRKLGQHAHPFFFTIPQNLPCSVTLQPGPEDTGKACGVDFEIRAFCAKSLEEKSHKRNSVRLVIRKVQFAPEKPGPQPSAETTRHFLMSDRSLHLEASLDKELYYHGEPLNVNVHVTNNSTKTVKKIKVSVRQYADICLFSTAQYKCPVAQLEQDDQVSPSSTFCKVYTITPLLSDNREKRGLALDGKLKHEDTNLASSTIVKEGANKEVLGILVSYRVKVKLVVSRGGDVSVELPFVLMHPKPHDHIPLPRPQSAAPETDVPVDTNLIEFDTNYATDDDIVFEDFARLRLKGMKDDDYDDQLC

D2R [2] = molecular target: T2, D2R (Homo sapiens, UniProt P14416); experiment: BRET-based Go protein activation assay at D2R (10 min); conditions: 10 min; for EC50: read-out: Go Protein Activation Assay pEC50 ± SEM (converted); for Bias Factors D2R: Go protein vs β-arrestin, log10(Emax/EC50)G protein − log10(Emax/EC50)β arrestin
T2 construct: expressed in transfected cells; host or cells: HEK293T
Target sequence in this assay (P14416 whole entry): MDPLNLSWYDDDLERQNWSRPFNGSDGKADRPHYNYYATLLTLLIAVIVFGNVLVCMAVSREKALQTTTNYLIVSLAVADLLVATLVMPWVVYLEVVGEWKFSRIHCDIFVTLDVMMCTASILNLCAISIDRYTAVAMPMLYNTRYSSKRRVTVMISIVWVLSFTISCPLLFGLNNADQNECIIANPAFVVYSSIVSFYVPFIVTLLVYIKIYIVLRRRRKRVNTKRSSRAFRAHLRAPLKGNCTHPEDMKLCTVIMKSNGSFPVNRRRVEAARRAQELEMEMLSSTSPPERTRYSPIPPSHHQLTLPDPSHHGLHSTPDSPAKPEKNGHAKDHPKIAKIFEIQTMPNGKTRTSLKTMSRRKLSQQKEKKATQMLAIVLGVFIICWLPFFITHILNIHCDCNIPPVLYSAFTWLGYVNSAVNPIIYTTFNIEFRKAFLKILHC

D2R [3] = molecular target: T2, D2R; experiment: BRET-based β-arrestin recruitment assay at D2R (10 min); conditions: D2R, 10 min; for EC50: read-out: β-arrestin Recruitment pEC50 ± SEM (converted)
Target sequence in this assay (P14416 whole entry): as above
Target sequence in this assay (P32121 whole entry partner): as the sequence (P32121 whole entry partner) above

D3R [4] = molecular target: T1, D3R; experiment: BRET-based Go protein activation assay at D3R (10 min); conditions: for Selectivity (D2R/D3R) Go Protein Activation: D3R over D2R selectivity; for EC50: read-out: Go Protein Activation Assay pEC50 ± SEM (converted); for Bias Factors D3R: Go protein vs β-arrestin, log10(Emax/EC50)G protein − log10(Emax/EC50)β arrestin
Target sequence in this assay (P35462 whole entry): as the sequence (P35462 whole entry) above

Question: For `C[C@H]1COC(c2ccc(N)nc2)CN1CCCCOc1ccc2c(c1)NC(=O)CC2` (mixture of isomers) [rac-AB04-35], which “β-arrestin Recruitment Change Emax over Quinpirole” value (D3R [1]) is on record?
Answer: Its value is −5.2.

Question: What about the “β-arrestin Recruitment Emax ± SEM (% of Quinpirole)” value (D3R [1]) of the same compound?
Answer: Its value is 94.8 ± 3.7 ^δδ % of Quinpirole.

Question: And the “β-arrestin Recruitment Fold Potency over Quinpirole” value (D3R [1])?
Answer: Its value is 0.009 fold.

Question: What about the EC50 (D3R [1]) of the same compound?
Answer: Its EC50 is 490 nM.

Question: What about the “Go Protein Activation Assay Change Emax over Quinpirole” value (D2R [2]; D2R) of the same compound?
Answer: Its value is −24.10.

Question: And the “Go Protein Activation Assay Emax ± SEM (% of Quinpirole)” value (D2R [2]; D2R)?
Answer: The value was 75.9 ± 5.3 % of Quinpirole.

Question: What about the “Go Protein Activation Assay Fold Potency over Quinpirole” value (D2R [2]; D2R) of the same compound?
Answer: Its value is 0.10 fold.

Question: And the EC50 (D2R [2]; D2R)?
Answer: Its EC50 is 331 nM.

Question: What about the “Bias Factors D2R” value (D2R [2]) of the same compound?
Answer: Its value is 0.6.

Question: What about the “β-arrestin Recruitment Change Emax over Quinpirole” value (D2R [3]) of the same compound?
Answer: Its value is 2.80.

Question: What about the “β-arrestin Recruitment Emax ± SEM (% of Quinpirole)” value (D2R [3]) of the same compound?
Answer: The value was 102.8 ± 2.5 % of Quinpirole.

Question: And the “β-arrestin Recruitment Fold Potency over Quinpirole” value (D2R [3])?
Answer: The value was 0.06 fold.

Question: And the EC50 (D2R [3])?
Answer: The EC50 was 1820 nM.

Question: And the “Go Protein Activation Assay Change Emax over Quinpirole” value (D3R [4]; D3R)?
Answer: Its value is −6.1.

Question: And the “Go Protein Activation Assay Emax ± SEM (% of Quinpirole)” value (D3R [4]; D3R)?
Answer: Its value is 93.9 ± 3.0 ^δδδδ % of Quinpirole.

Question: What about the “Go Protein Activation Assay Fold Potency over Quinpirole” value (D3R [4]; D3R) of the same compound?
Answer: The value was 0.051 fold.

Question: What about the “Selectivity (D2R/D3R) Go Protein Activation” value (D3R [4]) of the same compound?
Answer: The value was 5.8 fold.

Question: And the EC50 (D3R [4]; D3R)?
Answer: Its EC50 is 57.5 nM.

Question: What about the “Bias Factors D3R” value (D3R [4]) of the same compound?
Answer: Its value is 0.9.

Question: For `C[C@H]1CO[C@H](c2ccc(N)nc2)CN1CCCCOc1ccc2c(c1)NC(=O)CC2` [AB04-95], which “D3R mediated β-arrestin recruitment (result in words)” value (D3R [1]) is on record?
Answer: The value was “near complete abolishment”.

Question: What about the “Activity in D2R Go protein activation (result in words)” value (D2R [2]; D2R) of the same compound?
Answer: The value was “did not show any activity”.

Question: And the “Activity in D2R β-arrestin recruitment (result in words)” value (D2R [3])?
Answer: The value was “did not show any activity”.

Question: And the “D3R mediated Go protein activation (result in words)” value (D3R [4]; D3R)?
Answer: Its value is “near complete abolishment”.

Question: What does the source list for `C[C@H]1CO[C@@H](c2ccc(N)nc2)CN1CCCCOc1ccc2c(c1)NC(=O)CC2` [AB04-96]?
Answer: β-arrestin Recruitment Change Emax over Quinpirole (D3R [1]): 4.0; β-arrestin Recruitment Fold Potency over Quinpirole (D3R [1]): 0.025 fold; EC50 (D3R [1]): 174 nM; Go Protein Activation Assay Change Emax over Quinpirole (D2R [2]; D2R): 2.70; Go Protein Activation Assay Emax ± SEM (% of Quinpirole) (D2R [2]; D2R): 102.7 ± 4.0 % of Quinpirole; Go Protein Activation Assay Fold Potency over Quinpirole (D2R [2]; D2R): 0.66 fold; EC50 (D2R [2]; D2R): 52.5 nM; Bias Factors D2R (D2R [2]): 1.1; Higher efficacy compared to quinpirole in D2R mediated β-arrestin recruitment (D2R [3]): ~ 22%; β-arrestin Recruitment Change Emax over Quinpirole (D2R [3]): 21.6; β-arrestin Recruitment Emax ± SEM (% of Quinpirole) (D2R [3]): 121.6 ± 8.2 % of Quinpirole; β-arrestin Recruitment Fold Potency over Quinpirole (D2R [3]): 0.16 fold; EC50 (D2R [3]): 724 nM; Go Protein Activation Assay Change Emax over Quinpirole (D3R [4]; D3R): 0.4; Go Protein Activation Assay Emax ± SEM (% of Quinpirole) (D3R [4]; D3R): 100.4 ± 2.7 ^δδδδ % of Quinpirole; Go Protein Activation Assay Fold Potency over Quinpirole (D3R [4]; D3R): 0.158 fold; Selectivity (D2R/D3R) Go Protein Activation (D3R [4]): 2.8 fold; EC50 (D3R [4]; D3R): 18.6 nM; Bias Factors D3R (D3R [4]): 1.0
